Measured values taken from patent US11117894B2, “Pyridopyrazine compounds and uses thereof” (CITY OF HOPE, priority 2017, dated 2021).

Tests used:
A2058 melanoma = test: MTS cell viability assay, A2058 melanoma cell line; type: cell-based; conditions: 48 h; for Viability % CTL A2058 melanoma: Table 1, screened at 10 μM; for Viability (% CTL) at 10 μM A2058 melanoma: Table 2, 10 μM; for Viability % CTL A2058 melanoma (10 μM): Table 4, 10 μM; for IC50: Homo sapiens, MTS
Method: (§1) MTS assays were performed for cell viability. To determine if novel pyridopyrazine derivatives have antitumor activities, compounds were screened at 10 μM final concentration with A2058 melanoma and DU145 prostate cancer cell lines. Compounds #16 and #17 were selected to determine IC50 values against lung cancer cell lines, including A549, DMS273, H69, H513, H2461, DMS114, H358 and H2596. In this assay, cells (5000/well) were seeded in 96-well plates, incubated overnight at 37° C. in 5% CO2, and exposed to 10 μM of compounds or in a dose-dependent manner for 48 h. After 48 h treatment with compounds, MTS dye (20 μL/well) was added to 96-well plates. Viable cell numbers were determined by tetrazolium conversion to its formazan dye. Absorbance was measured at 490 nm using an automated ELISA plate reader. Dimethyl sulfoxide (DMSO) was used as the vehicle control. Each experiment was conducted in triplicate. IC50 values were determined using CalcuSyn software (Biosoft).

DU145 prostate cancer = test: MTS cell viability assay, DU145 prostate cancer cell line; type: cell-based; conditions: 48 h; for Viability % CTL DU145 prostate: Table 1, screened at 10 μM; for Viability (% CTL) at 10 μM DU145 prostate: Table 2; for Viability % CTL DU145 prostate (10 μM ): Table 4; for IC50: Homo sapiens, DU-145, DU145 prostate cancer, MTS
Method: as §1

Cc1nc2nccnc2cc1NC(=S)NCc1ccccc1 [Compound 18A]
Viability % CTL A2058 melanoma (A2058 melanoma): 74 % CTL
Viability % CTL DU145 prostate (DU145 prostate cancer): 89 % CTL

CSc1ccc(NC(=O)Nc2cc3ncc(Sc4ccccc4)nc3nc2C)cc1 [Compound 19B]
Viability % CTL A2058 melanoma (A2058 melanoma): 89 % CTL
Viability % CTL DU145 prostate (DU145 prostate cancer): 113 % CTL

Cc1nc2nc(Nc3ccccc3)cnc2cc1NC(=O)CN(C)C [Compound 24E]
Viability (% CTL) at 10 μM A2058 melanoma (A2058 melanoma): 84 % CTL
Viability (% CTL) at 10 μM DU145 prostate (DU145 prostate cancer): 102 % CTL

CC(=O)Nc1ccc(Nc2cnc3cc(NC(=O)Nc4ccc(F)c(Cl)c4)c(C)nc3n2)cc1 [Compound 32, N-(4-((7-(3-(3-Chloro-4-fluorophenyl)ureido)-6-methylpyrido[2,3-b]pyrazin-3-yl)amino)phenyl)acetamide]
Viability % CTL A2058 melanoma (10 μM) (A2058 melanoma): 65 % CTL
Viability % CTL DU145 prostate (10 μM ) (DU145 prostate cancer): 76 % CTL

Cc1nc2nc(Nc3ccc(C(=O)O)cc3)cnc2cc1NC(=O)Nc1cccc(C(F)(F)F)c1 [Compound 36, 4-((6-Methyl-7-(3-(3-(trifluoromethyl)phenyl)ureido)pyrido[2,3-b]pyrazin-3-yl)amino)benzoic acid]
Viability % CTL A2058 melanoma (10 μM) (A2058 melanoma): 113 % CTL
Viability % CTL DU145 prostate (10 μM ) (DU145 prostate cancer): 77 % CTL

Cc1nc2nc(Nc3ccccc3)cnc2cc1NC(=O)c1cccc(C(F)(F)F)c1 [Compound 12, N-(6-Methyl-3-(phenylamino)pyrido[2,3-b]pyrazin-7-yl)-3-(trifluoromethyl)benzamide]
Viability % CTL A2058 melanoma (A2058 melanoma): 69 % CTL
Viability % CTL DU145 prostate (DU145 prostate cancer): 93 % CTL

Cc1nc2nccnc2cc1NC(=O)c1ccccc1 [Compound 06A]
Viability % CTL A2058 melanoma (A2058 melanoma): 85 % CTL
Viability % CTL DU145 prostate (DU145 prostate cancer): 94 % CTL

Cc1nc2nccnc2cc1NC(=O)c1ccc(N)cc1 [Compound 12A]
Viability % CTL A2058 melanoma (A2058 melanoma): 84 % CTL
Viability % CTL DU145 prostate (DU145 prostate cancer): 99 % CTL

Cc1nc2nc(Nc3ccccc3)cnc2cc1NC(=O)CNc1ccccc1 [Compound 26E]
Viability (% CTL) at 10 μM A2058 melanoma (A2058 melanoma): 93 % CTL
Viability (% CTL) at 10 μM DU145 prostate (DU145 prostate cancer): 85 % CTL

Cc1nc2nc(Nc3ccc(C(=O)O)cc3)cnc2cc1NC(=O)Nc1ccc(F)c(Cl)c1 [Compound 35, 4-((7-(3-(3-Chloro-4-fluorophenyl)ureido)-6-methylpyrido[2,3-b]pyrazin-3-yl)amino)benzoic acid]
Viability % CTL A2058 melanoma (10 μM) (A2058 melanoma): 98 % CTL
Viability % CTL DU145 prostate (10 μM ) (DU145 prostate cancer): 82 % CTL

CSc1ccc(NC(=O)Nc2cc3ncc(Nc4ccccc4)nc3nc2C)cc1 [Compound 18, 1-(6-Methyl-3-(phenylamino)pyrido[2,3-b]pyrazin-7-yl)-3-(4-(methylthio)phenyl)urea]
IC50 (A2058 melanoma): 1.3 µM
Viability % CTL A2058 melanoma (10 μM) (A2058 melanoma): 7 % CTL
IC50 (DU145 prostate cancer): 2.4 µM
Viability % CTL DU145 prostate (10 μM ) (DU145 prostate cancer): 6 % CTL

Cc1nc2nc(Sc3ccccc3)cnc2cc1NC(=O)c1ccccc1C(F)(F)F [Compound 16B]
Viability % CTL A2058 melanoma (A2058 melanoma): 84 % CTL
Viability % CTL DU145 prostate (DU145 prostate cancer): 120 % CTL

Cc1nc2nccnc2cc1NC(=O)c1cccc(C(F)(F)F)c1 [Compound 09A]
Viability % CTL A2058 melanoma (A2058 melanoma): 74 % CTL
Viability % CTL DU145 prostate (DU145 prostate cancer): 103 % CTL

Cc1nc2nc(Oc3ccccc3)cnc2cc1[N+](=O)[O-] [Compound 55C]
Viability % CTL A2058 melanoma (A2058 melanoma): 91 % CTL
Viability % CTL DU145 prostate (DU145 prostate cancer): 95 % CTL

Cc1nc2nccnc2cc1NC(=O)Nc1cccc(C(F)(F)F)c1 [Compound 17A]
Viability % CTL A2058 melanoma (A2058 melanoma): 79 % CTL
Viability % CTL DU145 prostate (DU145 prostate cancer): 98 % CTL

Cc1nc2nccnc2cc1NC(=O)Nc1ccccc1 [Compound 15A]
Viability % CTL A2058 melanoma (A2058 melanoma): 73 % CTL
Viability % CTL DU145 prostate (DU145 prostate cancer): 104 % CTL

Cc1nc2nc(Nc3ccccc3)cnc2cc1NC(=O)Nc1ccc(Cl)cc1Cl [Compound 19, 1-(2,4-Dichlorophenyl)-3-(6-methyl-3-(phenylamino)pyrido[2,3-b]pyrazin-7-yl)urea]
Viability % CTL A2058 melanoma (10 μM) (A2058 melanoma): 60 % CTL
Viability % CTL DU145 prostate (10 μM ) (DU145 prostate cancer): 50 % CTL

Cc1ccc(C(=O)Nc2cc3ncc(Nc4ccccc4)nc3nc2C)cc1 [Compound 9, 4-Methyl-N-(6-methyl-3-(phenylamino)pyrido[2,3-b]pyrazin-7-yl)benzamide]
Viability (% CTL) at 10 μM A2058 melanoma (A2058 melanoma): 66 % CTL
Viability (% CTL) at 10 μM DU145 prostate (DU145 prostate cancer): 82 % CTL

Cc1nc2nc(Oc3ccccc3)cnc2cc1N [Compound 56D]
Viability % CTL A2058 melanoma (A2058 melanoma): 81 % CTL
Viability % CTL DU145 prostate (DU145 prostate cancer): 108 % CTL

Cc1nc2nc(Oc3ccccc3)cnc2cc1NC(=O)Nc1ccccc1 [Compound 57C]
Viability % CTL A2058 melanoma (A2058 melanoma): 94 % CTL
Viability % CTL DU145 prostate (DU145 prostate cancer): 126 % CTL

CC(=O)Nc1cccc(Nc2cnc3cc(NC(=O)Nc4ccc(F)c(Cl)c4)c(C)nc3n2)c1 [Compound 30, N-(3-((7-(3-(3-Chloro-4-fluorophenyl)ureido)-6-methylpyrido[2,3-b]pyrazin-3-yl)amino)phenyl)acetamide]
Viability % CTL A2058 melanoma (10 μM) (A2058 melanoma): 118 % CTL
Viability % CTL DU145 prostate (10 μM ) (DU145 prostate cancer): 64 % CTL

COc1cc(C(=O)Nc2cc3nccnc3nc2C)cc(OC)c1OC [Compound 07A]
Viability % CTL A2058 melanoma (A2058 melanoma): 82 % CTL
Viability % CTL DU145 prostate (DU145 prostate cancer): 122 % CTL

Cc1nc2nc(Nc3ccccc3)cnc2cc1NC(=O)Nc1ccccc1 [Compound 15, 1-(6-Methyl-3-(phenylamino)pyrido[2,3-b]pyrazin-7-yl)-3-phenylurea]
Viability (% CTL) at 10 μM A2058 melanoma (A2058 melanoma): 5 % CTL
Viability (% CTL) at 10 μM DU145 prostate (DU145 prostate cancer): 4 % CTL

CCOC(=O)c1ccc(Nc2cnc3cc(NC(=O)Nc4ccc(F)c(Cl)c4)c(C)nc3n2)cc1 [Compound 28, Ethyl 4-((7-(3-(3-chloro-4-fluorophenyl)ureido)-6-methylpyrido[2,3-b]pyrazin-3-yl)amino)benzoate]
IC50 (A2058 melanoma): 7.1 µM
Viability % CTL A2058 melanoma (10 μM) (A2058 melanoma): 35 % CTL
IC50 (DU145 prostate cancer): 9.9 µM
Viability % CTL DU145 prostate (10 μM ) (DU145 prostate cancer): 40 % CTL

CC(=O)Nc1cccc(Nc2cnc3cc(NC(=O)Nc4cccc(C(F)(F)F)c4)c(C)nc3n2)c1 [Compound 31, N-(3-((6-Methyl-7-(3-(3-(trifluoromethyl)phenyl)ureido)pyrido[2,3-b]pyrazin-3-yl)amino)phenyl)acetamide]
Viability % CTL A2058 melanoma (10 μM) (A2058 melanoma): 119 % CTL
Viability % CTL DU145 prostate (10 μM ) (DU145 prostate cancer): 62 % CTL

Cc1nc2nc(Nc3ccccc3)cnc2cc1NC(=O)CN1CCN(C)CC1 [Compound 25E]
Viability (% CTL) at 10 μM A2058 melanoma (A2058 melanoma): 85 % CTL
Viability (% CTL) at 10 μM DU145 prostate (DU145 prostate cancer): 83 % CTL

Cc1ccc(C(=O)Nc2cc3nccnc3nc2C)cc1 [Compound 08A]
Viability % CTL A2058 melanoma (A2058 melanoma): 80 % CTL
Viability % CTL DU145 prostate (DU145 prostate cancer): 96 % CTL

Cc1nc2nc(Sc3ccccc3)cnc2cc1NC(=O)Nc1ccc(F)c(Cl)c1 [Compound 18B]
Viability % CTL A2058 melanoma (A2058 melanoma): 83 % CTL
Viability % CTL DU145 prostate (DU145 prostate cancer): 124 % CTL

COc1cc(C(=O)Nc2cc3ncc(Nc4ccccc4)nc3nc2C)cc(OC)c1OC [Compound 11, 3,4,5-Trimethoxy-N-(6-methyl-3-(phenylamino)pyrido[2,3-b]pyrazin-7-yl)benzamide]
Viability (% CTL) at 10 μM A2058 melanoma (A2058 melanoma): 83 % CTL
Viability (% CTL) at 10 μM DU145 prostate (DU145 prostate cancer): 105 % CTL

CCOC(=O)c1ccc(Nc2cnc3cc(NC(=O)Nc4cccc(C(F)(F)F)c4)c(C)nc3n2)cc1 [Compound 29, Ethyl 4-((6-methyl-7-(3-(3-(trifluoromethyl)phenyl)ureido)pyrido[2,3-b]pyrazin-3-yl)amino)benzoate]
IC50 (A2058 melanoma): 6.1 µM
Viability % CTL A2058 melanoma (10 μM) (A2058 melanoma): 37 % CTL
IC50 (DU145 prostate cancer): 12.8 µM
Viability % CTL DU145 prostate (10 μM ) (DU145 prostate cancer): 48 % CTL

Cc1nc2nc(Nc3ccccc3)cnc2cc1NC(=O)c1ccc([N+](=O)[O-])cc1 [Compound 10, N-(6-Methyl-3-(phenylamino)pyrido[2,3-b]pyrazin-7-yl)-4-nitrobenzamide]
Viability (% CTL) at 10 μM A2058 melanoma (A2058 melanoma): 86 % CTL
Viability (% CTL) at 10 μM DU145 prostate (DU145 prostate cancer): 97 % CTL

Cc1nc2nc(Sc3ccccc3)cnc2cc1NC(=O)Nc1cccc(C(F)(F)F)c1 [Compound 17B]
Viability % CTL A2058 melanoma (A2058 melanoma): 56 % CTL
Viability % CTL DU145 prostate (DU145 prostate cancer): 101 % CTL

Cc1nc2nccnc2cc1NC(=O)Nc1ccc(F)c(Cl)c1 [Compound 16A]
Viability % CTL A2058 melanoma (A2058 melanoma): 96 % CTL
Viability % CTL DU145 prostate (DU145 prostate cancer): 99 % CTL

Cc1nc2nc(Sc3ccccc3)cnc2cc1NC(=O)Nc1ccc(F)c([N+](=O)[O-])c1 [Compound 20B]
Viability % CTL A2058 melanoma (A2058 melanoma): 84 % CTL
Viability % CTL DU145 prostate (DU145 prostate cancer): 89 % CTL

Cc1nc2nccnc2cc1NC(=O)CN1CCN(C)CC1 [Compound 13A]
Viability % CTL A2058 melanoma (A2058 melanoma): 94 % CTL
Viability % CTL DU145 prostate (DU145 prostate cancer): 86 % CTL
